The assay has as its target T1, Human recombinant MetAP2 (Homo sapiens, UniProt P50579).
T1 construct: made in house; host or cells: Sf9 insect cells
The experiment in a line: recombinant human MetAP2 inhibition assay (MAS substrate, amino acid oxidase/Amplex red fluorescence). Format: biochemical. The conditions noted are these: manganese enzyme, 30 minutes at 25° C., pH 7.5, 0.75 mM MAS substrate, 1% DMSO. The method, then: Compounds are tested for their capacity to inhibit recombinant human MetAP2 activity using the following assay.
Human recombinant MetAP2 expressed in Sf9 cells followed by affinity purification and EDTA treatment to remove endogenous active site cation was dialysed against MnCl2 to produce the manganese enzyme used in the assay. The assay was carried out for 30 minutes at 25° C. in 50 mM HEPES buffer containing 100 mM NaCl, pH 7.5 the presence of 0.75 mM Methionine-Alanine-Serine (MAS) substrate and 50 μg/ml amino acid oxidase using a dilution of purified MetAP2 giving>3-fold signal: noise. Cleavage of the substrate by MetAP2 and oxidation of free methionine by amino acid oxidase was detected and quantified using fluorescence generated by Amplex red (10-acetyl-3,7-dihydroxyphenoxazine) in combination with horseradish peroxidase which detects H2O2 released during the oxidation step. The fluorescent signal was detected using a multiwell fluorimeter. Compounds were diluted in DMSO prior to addition to assay buffer, the final DMSO concentration in the assay being 1%.
The IC50 is defined as the concentration at which a given compound achieves 50% inhibition of control. IC50 values are calculated using the XLfit software package (version 2.0.5).

pIC50: −log10 of the molar value.

IC50 data for four compounds are collected here from patent US9242997B2, “Tricyclic pyrazole sulphonamide compunds and methods of making and using same” (Zafgen, Inc., priority 2011, dated 2016).

T1 sequence (P50579 whole entry): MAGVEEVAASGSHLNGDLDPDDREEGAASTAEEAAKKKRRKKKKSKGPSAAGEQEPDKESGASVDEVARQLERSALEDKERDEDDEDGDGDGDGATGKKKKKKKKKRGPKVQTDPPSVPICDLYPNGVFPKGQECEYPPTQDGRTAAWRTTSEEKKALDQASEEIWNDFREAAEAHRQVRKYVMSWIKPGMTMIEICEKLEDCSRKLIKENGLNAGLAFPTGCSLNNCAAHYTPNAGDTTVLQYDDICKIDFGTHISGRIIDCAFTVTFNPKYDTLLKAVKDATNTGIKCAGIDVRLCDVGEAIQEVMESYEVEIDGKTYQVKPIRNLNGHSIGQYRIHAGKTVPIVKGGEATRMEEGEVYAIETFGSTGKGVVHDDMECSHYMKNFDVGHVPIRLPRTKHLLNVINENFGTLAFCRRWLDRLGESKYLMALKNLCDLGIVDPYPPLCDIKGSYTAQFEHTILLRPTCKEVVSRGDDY

A word on the pIC50: it is the negative decadic logarithm of the IC50, by convention in mol/L. In the case of `CCN(CC)C/C=C\c1cc(F)ccc1S(=O)(=O)Nc1ccc2c(ccn3nccc23)c1C(=O)O` [Example 1, 8-[2-((Z)-3-Diethylaminoprop-1-enyl)-4-fluorobenzenesulfonylamino]-pyrazolo[5,1-a]isoquinoline-7-carboxylic acid], the negative logarithm of the IC50 (pIC50) was > 7.30.
The result for `CCN(CC)C/C=C\c1cc(F)ccc1S(=O)(=O)Nc1ccc2c(c1C(=O)O)OCc1cccn1-2` [Example 2, 7-[2-((Z)-3-Diethylaminoprop-1-enyl)-4-fluorobenzenesulfonylamino]-4H-benzo[b]pyrrolo[1,2-d][1,4]oxazine-6-carboxylic acid] reads > 7.30.
The result for `CCN(CC)C/C=C\c1cc(F)ccc1S(=O)(=O)Nc1ccc2c(c1C(=O)O)CCn1nccc1-2` [Example 3, 8-[2-((Z)-3-Diethylaminoprop-1-enyl)-4-fluorobenzenesulfonylamino]-5,6-dihydropyrazolo[5,1-a]isoquinoline-7-carboxylic acid] reads 6.30 to 7.30; that for `CCN(CC)C/C=C\c1cc(F)ccc1S(=O)(=O)Nc1ccc2c(c1C(=O)O)OCc1nccn1-2` [Example 4, 7-[2-((Z)-3-Diethylaminoprop-1-enyl)-4-fluorobenzenesulfonylamino]-4H-5-oxa-3,9b-diazacyclopenta[a]naphthalene-6-carboxylic acid], > 7.30.
